Test results reported in the kinase profiling compilation of Christmann-Franck et al. (2016).

What was measured:
Assay in all cases: radiometric filter-binding kinase assay
EPHB1 (human) = EPHB1 (human) (UniProt P54762)
FLT1 (human) = FLT1 (human) (UniProt P17948)
MARK3 (human) = MARK3 (human) (UniProt P27448)
JAK2 JH1 JH2 (human) = JAK2 JH1 JH2 (human) (UniProt O60674)
INSR (human) = INSR (human) (UniProt P06213)
BRSK2 (human) = BRSK2 (human) (UniProt Q8IWQ3)
PRKCA (human) = PRKCA (human) (UniProt P17252)
[1] = test system: AKT1 (human), P31749 [S473D]
MAPK11 (human) = MAPK11 (human) (UniProt Q15759)
HIPK2 (human) = HIPK2 (human) (UniProt Q9H2X6); conditions: compound 10.0 µM
DYRK2 (human) = DYRK2 (human) (UniProt Q92630)
MAP3K1 (human) = MAP3K1 (human) (UniProt Q13233)
DYRK3 (human) = DYRK3 (human) (UniProt O43781)
MAP2K1 (human) = MAP2K1 (human) (UniProt Q02750)
EPHB4 (human) = EPHB4 (human) (UniProt P54760)
CaMK1 (human) = CaMK1 (human) (UniProt Q14012)
MAPK8 (human) = MAPK8 (human) (UniProt P45983)
GCK (human) = GCK (human) (UniProt Q12851)
MAP3K5 (human) = MAP3K5 (human) (UniProt Q99683)
SYK (human) = SYK (human) (UniProt P43405)
MAPK9 (human) = MAPK9 (human) (UniProt P45984)
EPHA2 (human) = EPHA2 (human) (UniProt P29317)
[2] = test system: RPS6KB1 (human), P23443 [T412E]
MAPKAPK5 (human) = MAPKAPK5 (human) (UniProt Q8IW41)
BRSK1 (human) = BRSK1 (human) (UniProt Q8TDC3); conditions: compound 10.0 µM
MAPK10 (human) = MAPK10 (human) (UniProt P53779)
STK3 (human) = STK3 (human) (UniProt Q13188)
EPHB2 (human) = EPHB2 (human) (UniProt P29323)
HIPK1 (human) = HIPK1 (human) (UniProt Q86Z02)
YES1 (human) = YES1 (human) (UniProt P07947)
MAP3K11 (human) = MAP3K11 (human) (UniProt Q16584)
PIM1 (human) = PIM1 (human) (UniProt P11309)
TBK1 (human) = TBK1 (human) (UniProt Q9UHD2)
TAOK1 (human) = TAOK1 (human) (UniProt Q7L7X3)
AURKA (human) = AURKA (human) (UniProt O14965)

JAK2 JH1 JH2 (human), sequence (O60674 whole entry, looked up): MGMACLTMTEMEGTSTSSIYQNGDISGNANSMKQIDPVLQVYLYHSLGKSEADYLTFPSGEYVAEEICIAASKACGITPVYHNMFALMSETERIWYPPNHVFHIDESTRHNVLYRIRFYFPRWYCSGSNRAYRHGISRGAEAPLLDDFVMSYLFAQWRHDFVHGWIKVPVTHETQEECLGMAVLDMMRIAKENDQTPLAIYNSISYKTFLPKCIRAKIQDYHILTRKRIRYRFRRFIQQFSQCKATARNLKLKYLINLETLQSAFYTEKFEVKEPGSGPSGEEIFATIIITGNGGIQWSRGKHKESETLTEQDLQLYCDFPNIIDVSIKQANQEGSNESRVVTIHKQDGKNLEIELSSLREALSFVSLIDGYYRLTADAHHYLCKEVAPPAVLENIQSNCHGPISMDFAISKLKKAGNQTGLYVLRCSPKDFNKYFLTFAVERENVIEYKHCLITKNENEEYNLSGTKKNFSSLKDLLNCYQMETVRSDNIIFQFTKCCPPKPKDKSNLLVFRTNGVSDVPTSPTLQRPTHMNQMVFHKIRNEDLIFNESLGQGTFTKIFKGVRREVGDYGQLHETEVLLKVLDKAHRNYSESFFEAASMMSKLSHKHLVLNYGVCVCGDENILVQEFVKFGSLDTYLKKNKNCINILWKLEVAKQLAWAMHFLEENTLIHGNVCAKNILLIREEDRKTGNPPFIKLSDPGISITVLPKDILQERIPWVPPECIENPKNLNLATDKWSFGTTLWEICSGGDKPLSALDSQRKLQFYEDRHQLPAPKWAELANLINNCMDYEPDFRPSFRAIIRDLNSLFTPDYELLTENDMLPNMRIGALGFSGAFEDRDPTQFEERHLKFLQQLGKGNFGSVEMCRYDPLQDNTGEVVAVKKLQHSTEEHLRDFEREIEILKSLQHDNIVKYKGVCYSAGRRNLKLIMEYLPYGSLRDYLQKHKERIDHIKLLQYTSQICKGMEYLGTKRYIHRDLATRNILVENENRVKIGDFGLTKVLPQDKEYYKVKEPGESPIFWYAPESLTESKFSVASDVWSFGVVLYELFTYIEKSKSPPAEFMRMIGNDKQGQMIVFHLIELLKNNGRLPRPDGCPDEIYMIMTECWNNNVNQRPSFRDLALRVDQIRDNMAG
BRSK2 (human), sequence (Q8IWQ3 whole entry, looked up): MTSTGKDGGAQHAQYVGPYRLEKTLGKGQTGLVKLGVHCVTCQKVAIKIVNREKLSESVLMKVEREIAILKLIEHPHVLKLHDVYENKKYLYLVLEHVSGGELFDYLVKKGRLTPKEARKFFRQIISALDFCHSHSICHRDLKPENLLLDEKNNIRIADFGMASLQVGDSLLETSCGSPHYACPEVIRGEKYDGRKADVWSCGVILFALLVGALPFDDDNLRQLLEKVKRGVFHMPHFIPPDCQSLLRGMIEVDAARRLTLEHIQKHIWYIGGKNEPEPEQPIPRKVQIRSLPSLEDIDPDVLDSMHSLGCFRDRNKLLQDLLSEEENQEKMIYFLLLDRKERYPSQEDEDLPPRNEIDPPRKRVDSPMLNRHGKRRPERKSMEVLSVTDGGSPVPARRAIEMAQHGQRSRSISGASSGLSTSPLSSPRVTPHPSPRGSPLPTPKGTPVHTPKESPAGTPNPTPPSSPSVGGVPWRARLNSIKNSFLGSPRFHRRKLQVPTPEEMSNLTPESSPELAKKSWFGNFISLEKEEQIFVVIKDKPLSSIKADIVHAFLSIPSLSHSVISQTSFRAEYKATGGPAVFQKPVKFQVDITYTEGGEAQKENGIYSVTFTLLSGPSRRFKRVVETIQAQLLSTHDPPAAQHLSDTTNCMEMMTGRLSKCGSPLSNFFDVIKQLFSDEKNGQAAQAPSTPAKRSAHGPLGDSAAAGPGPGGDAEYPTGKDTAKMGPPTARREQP
FLT1 (human), sequence (P17948 whole entry, looked up): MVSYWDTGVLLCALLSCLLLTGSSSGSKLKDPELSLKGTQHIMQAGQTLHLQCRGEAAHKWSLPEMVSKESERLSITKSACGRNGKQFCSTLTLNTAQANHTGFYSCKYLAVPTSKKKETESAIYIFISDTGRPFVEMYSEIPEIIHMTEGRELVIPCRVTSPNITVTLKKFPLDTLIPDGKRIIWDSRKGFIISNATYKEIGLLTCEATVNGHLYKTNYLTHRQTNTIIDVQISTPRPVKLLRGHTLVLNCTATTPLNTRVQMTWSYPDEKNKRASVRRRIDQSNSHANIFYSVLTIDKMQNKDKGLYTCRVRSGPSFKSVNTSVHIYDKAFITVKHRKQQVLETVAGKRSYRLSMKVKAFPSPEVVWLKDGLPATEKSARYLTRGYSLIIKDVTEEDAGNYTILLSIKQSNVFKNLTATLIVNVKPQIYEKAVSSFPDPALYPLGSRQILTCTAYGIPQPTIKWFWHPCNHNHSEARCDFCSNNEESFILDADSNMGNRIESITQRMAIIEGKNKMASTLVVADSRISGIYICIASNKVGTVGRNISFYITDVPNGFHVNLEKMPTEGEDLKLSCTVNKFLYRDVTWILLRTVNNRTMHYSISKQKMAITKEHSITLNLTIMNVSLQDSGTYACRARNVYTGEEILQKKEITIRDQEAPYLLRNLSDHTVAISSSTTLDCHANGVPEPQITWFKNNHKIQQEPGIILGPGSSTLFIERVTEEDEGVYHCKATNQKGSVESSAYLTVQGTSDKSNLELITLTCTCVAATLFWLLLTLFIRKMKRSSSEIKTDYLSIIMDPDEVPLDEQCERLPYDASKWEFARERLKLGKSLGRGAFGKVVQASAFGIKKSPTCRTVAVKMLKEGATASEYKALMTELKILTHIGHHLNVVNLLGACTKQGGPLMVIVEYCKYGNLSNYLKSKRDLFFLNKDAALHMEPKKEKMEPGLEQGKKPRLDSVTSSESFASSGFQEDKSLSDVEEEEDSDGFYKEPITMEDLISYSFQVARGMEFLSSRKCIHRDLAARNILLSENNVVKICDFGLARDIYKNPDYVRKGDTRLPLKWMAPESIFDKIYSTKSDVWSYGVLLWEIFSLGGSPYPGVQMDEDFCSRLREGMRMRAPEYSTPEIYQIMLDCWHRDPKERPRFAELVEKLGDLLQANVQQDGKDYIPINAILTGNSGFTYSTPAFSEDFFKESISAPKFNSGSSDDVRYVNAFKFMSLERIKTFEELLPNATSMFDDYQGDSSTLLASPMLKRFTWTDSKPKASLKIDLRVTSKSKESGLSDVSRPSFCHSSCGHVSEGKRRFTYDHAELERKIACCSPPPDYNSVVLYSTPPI
STK3 (human), sequence (Q13188 whole entry, looked up): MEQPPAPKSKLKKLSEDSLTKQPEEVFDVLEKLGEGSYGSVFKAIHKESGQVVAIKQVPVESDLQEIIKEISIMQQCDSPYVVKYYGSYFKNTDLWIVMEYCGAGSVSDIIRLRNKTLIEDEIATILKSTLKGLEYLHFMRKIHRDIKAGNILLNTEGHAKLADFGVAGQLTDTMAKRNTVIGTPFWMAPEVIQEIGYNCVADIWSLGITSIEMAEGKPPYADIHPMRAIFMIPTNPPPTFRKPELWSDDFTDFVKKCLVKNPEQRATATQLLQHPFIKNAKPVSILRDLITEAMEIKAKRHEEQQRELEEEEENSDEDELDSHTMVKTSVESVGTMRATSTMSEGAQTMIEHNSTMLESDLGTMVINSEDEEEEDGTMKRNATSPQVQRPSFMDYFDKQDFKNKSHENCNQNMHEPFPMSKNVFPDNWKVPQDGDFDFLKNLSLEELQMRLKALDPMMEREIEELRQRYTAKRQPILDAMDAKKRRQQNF
EPHB2 (human), sequence (P29323 whole entry, looked up): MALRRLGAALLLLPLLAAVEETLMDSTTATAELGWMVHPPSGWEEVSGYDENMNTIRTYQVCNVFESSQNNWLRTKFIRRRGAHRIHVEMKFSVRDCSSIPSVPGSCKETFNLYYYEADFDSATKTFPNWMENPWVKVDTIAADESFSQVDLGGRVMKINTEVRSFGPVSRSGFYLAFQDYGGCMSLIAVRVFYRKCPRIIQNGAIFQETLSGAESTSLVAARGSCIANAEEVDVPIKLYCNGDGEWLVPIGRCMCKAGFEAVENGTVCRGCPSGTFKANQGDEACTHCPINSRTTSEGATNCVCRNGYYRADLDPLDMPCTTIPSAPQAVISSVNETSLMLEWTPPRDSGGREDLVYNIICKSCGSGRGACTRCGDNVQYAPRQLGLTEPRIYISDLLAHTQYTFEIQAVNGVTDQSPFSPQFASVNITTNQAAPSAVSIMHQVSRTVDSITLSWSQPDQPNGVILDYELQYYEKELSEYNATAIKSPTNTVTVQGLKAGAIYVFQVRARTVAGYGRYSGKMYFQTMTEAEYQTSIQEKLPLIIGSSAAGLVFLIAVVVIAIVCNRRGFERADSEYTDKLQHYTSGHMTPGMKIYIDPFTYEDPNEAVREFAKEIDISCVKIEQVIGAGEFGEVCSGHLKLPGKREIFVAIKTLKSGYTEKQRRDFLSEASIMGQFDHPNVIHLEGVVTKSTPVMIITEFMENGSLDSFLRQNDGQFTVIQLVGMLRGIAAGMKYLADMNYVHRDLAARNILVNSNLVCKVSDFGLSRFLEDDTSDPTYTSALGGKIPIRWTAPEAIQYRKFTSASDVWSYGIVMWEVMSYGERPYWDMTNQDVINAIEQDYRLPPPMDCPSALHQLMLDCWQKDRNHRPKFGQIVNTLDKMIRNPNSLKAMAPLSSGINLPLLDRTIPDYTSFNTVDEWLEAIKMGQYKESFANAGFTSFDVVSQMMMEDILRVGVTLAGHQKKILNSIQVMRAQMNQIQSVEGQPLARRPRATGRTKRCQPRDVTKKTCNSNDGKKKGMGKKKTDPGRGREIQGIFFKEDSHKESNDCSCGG
PIM1 (human), sequence (P11309 whole entry, looked up): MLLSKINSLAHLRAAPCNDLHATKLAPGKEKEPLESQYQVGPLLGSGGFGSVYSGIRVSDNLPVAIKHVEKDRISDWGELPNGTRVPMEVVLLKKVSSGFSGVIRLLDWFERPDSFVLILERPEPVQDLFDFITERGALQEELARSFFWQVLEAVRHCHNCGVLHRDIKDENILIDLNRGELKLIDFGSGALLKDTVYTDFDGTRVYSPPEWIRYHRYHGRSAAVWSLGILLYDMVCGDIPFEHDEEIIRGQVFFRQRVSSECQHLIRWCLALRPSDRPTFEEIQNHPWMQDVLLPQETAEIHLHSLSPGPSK

**Q.** Which results are given for `C=CC(=O)N1CCC[C@@H](n2nc(-c3ccc(Oc4ccccc4)cc3)c3c(N)ncnc32)C1`?
**A.** residual activity (EPHB1 (human); compound 0.1 µM): 72%; residual activity (EPHB1 (human); compound 1.0 µM): 90%; residual activity (EPHB1 (human); compound 10.0 µM): 86%; residual activity (FLT1 (human); compound 0.1 µM): 40%; residual activity (FLT1 (human); compound 1.0 µM): 7%; residual activity (FLT1 (human); compound 10.0 µM): 2%; residual activity (MARK3 (human); compound 0.1 µM): 98%; residual activity (MARK3 (human); compound 1.0 µM): 94%; residual activity (MARK3 (human); compound 10.0 µM): 76%; residual activity (JAK2 JH1 JH2 (human); compound 0.1 µM): 90%; residual activity (JAK2 JH1 JH2 (human); compound 1.0 µM): 103%; residual activity (JAK2 JH1 JH2 (human); compound 10.0 µM): 83%; residual activity (INSR (human); compound 0.1 µM): 77%; residual activity (INSR (human); compound 10.0 µM): 31%; residual activity (BRSK2 (human); compound 0.1 µM): 100%; residual activity (BRSK2 (human); compound 1.0 µM): 91%; residual activity (BRSK2 (human); compound 10.0 µM): 61%; residual activity (PRKCA (human); compound 0.1 µM): 99%; residual activity (PRKCA (human); compound 10.0 µM): 100%; residual activity ([1]; compound 0.1 µM): 79%; residual activity ([1]; compound 1.0 µM): 97%; residual activity ([1]; compound 10.0 µM): 78%; residual activity (MAPK11 (human); compound 1.0 µM): 103%; residual activity (MAPK11 (human); compound 10.0 µM): 68%; residual activity (HIPK2 (human)): 66%; residual activity (DYRK2 (human); compound 0.1 µM): 83%; residual activity (DYRK2 (human); compound 1.0 µM): 105%; residual activity (DYRK2 (human); compound 10.0 µM): 79%; residual activity (MAP3K1 (human); compound 0.1 µM): 106%; residual activity (MAP3K1 (human); compound 1.0 µM): 103%; residual activity (MAP3K1 (human); compound 10.0 µM): 56%; residual activity (DYRK3 (human); compound 0.1 µM): 93%; residual activity (DYRK3 (human); compound 1.0 µM): 86%; residual activity (DYRK3 (human); compound 10.0 µM): 68%; residual activity (MAP2K1 (human); compound 0.1 µM): 85%; residual activity (MAP2K1 (human); compound 1.0 µM): 76%; residual activity (MAP2K1 (human); compound 10.0 µM): 56%; residual activity (EPHB4 (human); compound 0.1 µM): 83%; residual activity (EPHB4 (human); compound 1.0 µM): 74%; residual activity (EPHB4 (human); compound 10.0 µM): 39%; residual activity (CaMK1 (human); compound 0.1 µM): 80%; residual activity (CaMK1 (human); compound 1.0 µM): 99%; residual activity (CaMK1 (human); compound 10.0 µM): 33%; residual activity (MAPK8 (human); compound 0.1 µM): 98%; residual activity (MAPK8 (human); compound 1.0 µM): 98%; residual activity (MAPK8 (human); compound 10.0 µM): 75%; residual activity (GCK (human); compound 0.1 µM): 98%; residual activity (GCK (human); compound 1.0 µM): 77%; residual activity (GCK (human); compound 10.0 µM): 38%; residual activity (MAP3K5 (human); compound 0.1 µM): 103%; residual activity (MAP3K5 (human); compound 1.0 µM): 128%; residual activity (MAP3K5 (human); compound 10.0 µM): 111%; residual activity (SYK (human); compound 0.1 µM): 90%; residual activity (SYK (human); compound 1.0 µM): 100%; residual activity (SYK (human); compound 10.0 µM): 52%; residual activity (MAPK9 (human); compound 0.1 µM): 89%; residual activity (MAPK9 (human); compound 1.0 µM): 101%; residual activity (EPHA2 (human); compound 0.1 µM): 91%; residual activity (EPHA2 (human); compound 1.0 µM): 98%; residual activity (EPHA2 (human); compound 10.0 µM): 64%; residual activity ([2]; compound 0.1 µM): 93%; residual activity ([2]; compound 1.0 µM): 86%; residual activity ([2]; compound 10.0 µM): 66%; residual activity (MAPKAPK5 (human); compound 0.1 µM): 101%; residual activity (MAPKAPK5 (human); compound 1.0 µM): 107%; residual activity (MAPKAPK5 (human); compound 10.0 µM): 83%; residual activity (BRSK1 (human)): 49%; residual activity (MAPK10 (human); compound 0.1 µM): 84%; residual activity (MAPK10 (human); compound 1.0 µM): 96%; residual activity (MAPK10 (human); compound 10.0 µM): 86%; residual activity (STK3 (human); compound 0.1 µM): 88%; residual activity (STK3 (human); compound 1.0 µM): 65%; residual activity (STK3 (human); compound 10.0 µM): 41%; residual activity (EPHB2 (human); compound 0.1 µM): 102%; residual activity (EPHB2 (human); compound 1.0 µM): 65%; residual activity (EPHB2 (human); compound 10.0 µM): 11%; residual activity (HIPK1 (human); compound 0.1 µM): 75%; residual activity (HIPK1 (human); compound 1.0 µM): 87%; residual activity (HIPK1 (human); compound 10.0 µM): 75%; residual activity (YES1 (human); compound 0.1 µM): 20%; residual activity (YES1 (human); compound 1.0 µM): 16%; residual activity (YES1 (human); compound 10.0 µM): 13%; residual activity (MAP3K11 (human); compound 0.1 µM): 87%; residual activity (MAP3K11 (human); compound 1.0 µM): 65%; residual activity (MAP3K11 (human); compound 10.0 µM): 28%; residual activity (PIM1 (human); compound 0.1 µM): 98%; residual activity (PIM1 (human); compound 1.0 µM): 95%; residual activity (PIM1 (human); compound 10.0 µM): 81%; residual activity (TBK1 (human); compound 0.1 µM): 102%; residual activity (TBK1 (human); compound 1.0 µM): 113%; residual activity (TBK1 (human); compound 10.0 µM): 90%; residual activity (TAOK1 (human); compound 0.1 µM): 113%; residual activity (TAOK1 (human); compound 1.0 µM): 119%; residual activity (AURKA (human); compound 0.1 µM): 92%; residual activity (AURKA (human); compound 1.0 µM): 57%; residual activity (AURKA (human); compound 10.0 µM): 10%
